{
  "source": "patent US6355633B1",
  "about": "“Aryl sulfonic acids and derivatives as FSH antagonists” (American Home Products Corporation, priority 1999, dated 2002)",
  "data": [
    {"target": "T1, FSH receptor (Homo sapiens, UniProt P23945)", "T1 sequence (P23945 18-695)": "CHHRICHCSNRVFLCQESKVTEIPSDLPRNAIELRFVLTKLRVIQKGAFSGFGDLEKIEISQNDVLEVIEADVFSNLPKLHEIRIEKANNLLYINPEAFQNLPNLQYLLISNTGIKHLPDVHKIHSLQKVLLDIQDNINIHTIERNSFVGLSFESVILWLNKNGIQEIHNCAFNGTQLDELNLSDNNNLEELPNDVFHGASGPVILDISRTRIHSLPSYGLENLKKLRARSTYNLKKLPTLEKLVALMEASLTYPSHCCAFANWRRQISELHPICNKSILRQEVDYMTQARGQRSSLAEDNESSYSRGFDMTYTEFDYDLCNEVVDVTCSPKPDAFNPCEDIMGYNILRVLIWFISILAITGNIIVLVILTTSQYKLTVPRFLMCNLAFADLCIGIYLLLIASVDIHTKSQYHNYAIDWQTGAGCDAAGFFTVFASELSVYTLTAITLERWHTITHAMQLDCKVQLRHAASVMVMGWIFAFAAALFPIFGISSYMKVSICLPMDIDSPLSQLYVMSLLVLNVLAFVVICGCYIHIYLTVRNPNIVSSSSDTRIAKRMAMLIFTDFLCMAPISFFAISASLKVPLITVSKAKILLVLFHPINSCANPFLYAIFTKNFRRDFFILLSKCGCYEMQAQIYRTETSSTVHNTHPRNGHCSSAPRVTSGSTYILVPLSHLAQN", "assay": "FSH Receptor Radioligand Membrane Binding Standard Pharmacological Test Procedure", "design": "expressed in transfected cells", "conditions": "[125I]FSH binding to membranes of CHO cells stably transfected with the human FSH receptor", "outline": "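Membranes from CHO cells stably expressing human FSH receptor; compounds pre-incubated 15 min at room temperature, then [125I]FSH added (diluted to 200 pM before addition) for 2 h at room temperature in pH 7.2 Tris buffer with protease inhibitors and BSA. Bound radioactivity after filtration counted by gamma counter; non-specific binding defined with unlabelled human FSH.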", "units": {"IC50": "nM"}, "values": [
      {"molecule": "2,2′-[(E)-1,2-Ethenediyl]bis[5-[[4-(methylthio)-3-(4-morpholinylsulfonyl)benzoyl]amino]benzenesulfonic Acid] [Example 30b]", "IC50": 1200},
      {"molecule": "COCCOCCOc1ccc(C(=O)Nc2ccc(/C=C/c3ccc(NC(=O)c4ccc(OCCOCCOC)c(S(=O)(=O)N5CCOCC5)c4)cc3S(=O)(=O)O)c(S(=O)(=O)O)c2)cc1S(=O)(=O)N1CCOCC1", "note": "[Example 30a, 2,2′-[(E)-1,2-Ethenediyl]bis[5-[[4-[2-(2-methoxyethoxy)ethoxy]-3-(4-morpholinylsulfonyl)benzoyl]amino]benzenesulfonic Acid]]", "IC50": 1600},
      {"molecule": "CS(=O)(=O)c1ccc(C(=O)Nc2ccc(/C=C/c3ccc(NC(=O)c4ccc(S(C)(=O)=O)c([N+](=O)[O-])c4)cc3S(=O)(=O)O)c(S(=O)(=O)O)c2)cc1[N+](=O)[O-]", "note": "[Example 30c, 2.2′-[(E)-1,2-Ethenediyl]bis[5-[[(4-methylsulfonyl)-3-(nitro)-benzoyl]amino]benzenesulfonic Acid]]", "IC50": 1600},
      {"molecule": "CS(=O)(=O)c1ccc(C(=O)Nc2ccc(/C=C/c3ccc(NC(=O)c4ccc(S(C)(=O)=O)c(S(=O)(=O)N5CCOCC5)c4)cc3S(=O)(=O)O)c(S(=O)(=O)O)c2)cc1S(=O)(=O)N1CCOCC1", "note": "[Example 30d, 2,2′-[(E)-1,2-Ethenediyl]bis[5-[[4-(methylsulfonyl)-3-(4-morpholinylsulfonyl)benzoyl]amino]benzenesulfonic Acid]]", "IC50": 1500},
      {"molecule": "CSc1ccc(C(=O)Nc2ccc(/C=C/c3ccc(NC(=O)c4ccc(S(C)(=O)=O)c([N+](=O)[O-])c4)cc3S(=O)(=O)O)c(S(=O)(=O)O)c2)cc1S(=O)(=O)N1CCOCC1", "note": "[Example 30e]", "IC50": 2500},
      {"molecule": "COCCNS(=O)(=O)c1cc(C(=O)Nc2ccc(/C=C/c3ccc(NC(=O)c4ccc(S(C)(=O)=O)c([N+](=O)[O-])c4)cc3S(=O)(=O)O)c(S(=O)(=O)O)c2)ccc1OC", "note": "[Example 30f]", "IC50": 1900},
      {"molecule": "COc1ccc(C(=O)Nc2ccc(/C=C/c3ccc(NC(=O)c4ccc(S(C)(=O)=O)cc4)cc3S(=O)(=O)O)c(S(=O)(=O)O)c2)cc1S(=O)(=O)N1CCOCC1", "note": "[Example 30g]", "IC50": 1600},
      {"molecule": "COc1ccc(C(=O)Nc2ccc(/C=C/c3ccc(NC(=O)c4ccc(OC)c(S(=O)(=O)N5CCS(=O)(=O)CC5)c4)cc3S(=O)(=O)O)c(S(=O)(=O)O)c2)cc1S(=O)(=O)N1CCS(=O)(=O)CC1", "note": "[Example 30k, 2,2′-[(E)-1,2-Ethenediyl]bis[5-[[3-[(1,1-dioxido-4-thiomorpholinyl)sulfonyl]-4-methoxybenzoyl]amino]benzenesulfonic Acid]]", "IC50": 2000},
      {"molecule": "COCCNS(=O)(=O)c1cc(C(=O)Nc2ccc(/C=C/c3ccc(NC(=O)c4ccc(OC)c(S(=O)(=O)NCCOC)c4)cc3S(=O)(=O)O)c(S(=O)(=O)O)c2)ccc1OC", "note": "[Example 30m, 2,2′-[(E)-1,2-Ethenediyl]bis[5-[[4-methoxy-3-[[(2-methoxyethyl)amino]sulfonyl]benzoyl]amino]benzenesulfonic Acid]]", "IC50": 2200},
      {"molecule": "CS(=O)(=O)c1ccc(C(=O)Nc2ccc(/C=C/c3ccc(NC(=O)c4ccc(S(C)(=O)=O)cc4)cc3S(=O)(=O)O)c(S(=O)(=O)O)c2)cc1", "note": "[Example 30q, 2,2′-[(E)-1,2-Ethenediyl]bis[5-[[4-(methylsulfonyl)benzoyl]amino]benzenesulfonic Acid]]", "IC50": 4000},
      {"molecule": "O=C(Nc1ccc(/C=C/c2ccc(NC(=O)c3ccc(OC4CCOCC4)c(S(=O)(=O)N4CCOCC4)c3)cc2S(=O)(=O)O)c(S(=O)(=O)O)c1)c1ccc(OC2CCOCC2)c(S(=O)(=O)N2CCOCC2)c1", "note": "[Example 30r, 2,2′-[(E)-1,2-Ethenediyl]bis[5-[[3-(4-morpholinylsulfonyl)-4-[(tetrahydro-2H-pyran-4-yl)oxy]benzoyl]amino]benzenesulfonic Acid]]", "IC50": 1100},
      {"molecule": "COc1ccc(C(=O)Nc2ccc(/C=C/c3ccc(NC(=O)c4ccc(OC)c(S(=O)(=O)N5CCOCC5)c4)cc3S(=O)(=O)O)c(S(=O)(=O)O)c2)cc1S(=O)(=O)N1CCOCC1", "note": "[Example 30s, 2,2′-[(E)-1,2-Ethenediyl]bis[5-[[4-methoxy-3-(4-morpholinylsulfonyl)benzoyl]amino]benzenesulfonic Acid]]", "IC50": 3000},
      {"molecule": "COCCOc1ccc(C(=O)Nc2ccc(/C=C/c3ccc(NC(=O)c4ccc(OCCOC)c(S(=O)(=O)N5CCOCC5)c4)cc3S(=O)(=O)O)c(S(=O)(=O)O)c2)cc1S(=O)(=O)N1CCOCC1", "note": "[Example 30t, 2,2′-[(E)-1,2-Ethenediyl]bis[5-[[4-(2-methoxyethoxy)-3-(4-morpholinylsulfony)benzoyl]amino]benzenesulfonic Acid]]", "IC50": 1300},
      {"molecule": "CCS(=O)(=O)c1ccc(C(=O)Nc2ccc(/C=C/c3ccc(NC(=O)c4ccc(S(=O)(=O)CC)cc4)cc3S(=O)(=O)O)c(S(=O)(=O)O)c2)cc1", "note": "[Example 32f, 2,2′-[(E)-1,2-Ethenediyl]bis[5-[[4-(ethylsulfonyl)benzoyl]amino]benzenesulfonic Acid]]", "IC50": 2900},
      {"molecule": "COc1ccc(C(=O)Nc2ccc(/C=C/c3ccc(NC(=O)c4ccc(OC)c(S(=O)(=O)N5CCSCC5)c4)cc3S(=O)(=O)O)c(S(=O)(=O)O)c2)cc1S(=O)(=O)N1CCSCC1", "note": "[Example 33d, 2,2′-[(E)-1,2-Ethenediyl]bis[5-[[4-methoxy-3-(4-thiomorpholinylsulfonyl)benzoyl]amino]benzenesulfonic Acid]]", "IC50": 5200},
      {"molecule": "COc1ccc(C(=O)Nc2ccc(/C=C/c3ccc(NC(=O)c4ccc(OC)c(S(=O)(=O)N5CCCC5)c4)cc3S(=O)(=O)O)c(S(=O)(=O)O)c2)cc1S(=O)(=O)N1CCCC1", "note": "[Example 33e, 2,2′-[(E)-1,2-Ethenediyl]bis[5-[[4-methoxy-3-(1-pyrrolidinylsulfonyl)benzoyl]amino]benzenesulfonic Acid]]", "IC50": 4300},
      {"molecule": "COc1ccc(C(=O)Nc2ccc(/C=C/c3ccc(NC(=O)c4ccc(OC)c(S(=O)(=O)N5CCN(C(C)=O)CC5)c4)cc3S(=O)(=O)O)c(S(=O)(=O)O)c2)cc1S(=O)(=O)N1CCN(C(C)=O)CC1", "note": "[Example 34a, 2,2′-[(E)-1,2-Ethenediyl]bis[5-[[3-[(4-acetyl-1-piperazinyl)sulfonyl]-4-methoxybenzoyl]amino]benzenesulfonic Acid]]", "IC50": 3800},
      {"molecule": "COc1ccc(C(=O)Nc2ccc(/C=C/c3ccc(NC(=O)c4ccc(OC)c(S(=O)(=O)N5CCN(C=O)CC5)c4)cc3S(=O)(=O)O)c(S(=O)(=O)O)c2)cc1S(=O)(=O)N1CCN(C=O)CC1", "note": "[Example 34b, 2,2′-[(E)-1,2-Ethenediyl]bis[5-[[3-[(4-formyl-1-piperazinyl)sulfonyl]-4-methoxybenzoyl]amino]benzenesulfonic Acid]]", "IC50": 1600},
      {"molecule": "COc1ccc(C(=O)Nc2ccc(CCc3ccc(NC(=O)c4ccc(S(C)(=O)=O)cc4)cc3S(=O)(=O)O)c(S(=O)(=O)O)c2)cc1S(=O)(=O)N1CCOCC1", "note": "[Example 43a, 5-[[4-Methoxy-3-(4-morpholinylsulfonyl)benzoyl]amino]-2-[2-[4-[[4-(methylsulfonyl)benzoyl]amino]-2-sulfophenyl]ethyl]benzenesulfonic Acid]", "IC50": 2000}
    ]}
  ]
}
